The target of this test is T1, bovine cerebral TPK1 (Bos taurus, UniProt A0A3Q1MT31).
T1 construct: bovine cerebral TPK1; from tissue; host or cells: bovine cerebrum (brain)
T1 sequence (A0A3Q1MT31 1-419): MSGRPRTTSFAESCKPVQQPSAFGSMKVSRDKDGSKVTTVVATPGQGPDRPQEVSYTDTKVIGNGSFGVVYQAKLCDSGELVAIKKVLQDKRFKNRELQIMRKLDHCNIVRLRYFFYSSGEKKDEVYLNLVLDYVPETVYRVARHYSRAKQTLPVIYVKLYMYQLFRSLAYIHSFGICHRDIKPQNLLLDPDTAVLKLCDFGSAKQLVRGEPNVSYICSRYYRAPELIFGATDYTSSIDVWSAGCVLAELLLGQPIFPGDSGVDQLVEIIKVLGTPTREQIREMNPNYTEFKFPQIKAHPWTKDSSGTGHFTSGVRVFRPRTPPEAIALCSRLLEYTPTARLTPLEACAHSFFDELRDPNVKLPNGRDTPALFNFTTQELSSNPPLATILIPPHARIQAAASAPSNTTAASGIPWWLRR
In words: Inhibitory activity against P-GS1 phosphorylation by bovine cerebral TPK1. As to conditions: 41.7 μM [γ-32P] ATP, 25° C. for 2 hours. In kind it is biochemical. As to the method:
Experiment 1: Inhibitory Activity of the Medicament of the Present Invention Against P-GS1 Phosphorylation by Bovine Cerebral TPK1
A mixture containing 100 mM MES-sodium hydroxide (pH 6.5), 1 mM magnesium acetate, 0.5 mM EGTA, 5 mM B-mercaptoethanol, 0.02% Tween 20, 10% glycerol, 12 μg/ml P-GS1, 41.7 μM [γ-^32P] ATP (68 kBq/ml), bovine cerebral TPK1 and a compound shown in Table (a final mixture contained 1.7% DMSO deriving from a solution of a test compound prepared in the presence of 10% DMSO) was used as a reaction system. The phosphorylation was started by adding ATP, and the reaction was conducted at 25° C. for 2 hours, and then stopped by adding 21% perchloric acid on ice cooling. The reaction mixture was centrifuged at 12,000 rpm for 5 minutes and adsorbed on P81 paper (Whatmann), and then the paper was washed four times with 75 mM phosphoric acid, three times with water and once with acetone. The paper was dried, and the residual radioactivity was measured using a liquid scintillation counter.
With `CN(c1ccc([C@H]2CN(c3nc(-c4ccncn4)cc(=O)n3C)CCO2)cc1)[C@@H]1CCOC1` [Compound No. 091, 2-((2S)-2-(4-(N-methyl-N-((3R)-tetrahydrofuran-3yl)amino)phenyl)morpholin-4-yl)-3-methyl-6-(pyrimidin-4-yl)-3H-pyrimidin-4-one], inhibition was half-maximal at 6.1 nM (IC50). The value for `Cn1c(N2CCO[C@@H](c3ccc(OCCCN4CCCC4)cc3)C2)nc(-c2ccncn2)cc1=O` [Compound No. 202, 2-((2S)-2-(4-(3-(pyrrolidin-1-yl)propyloxy)phenyl)morpholine-4-yl)-3-methyl-6-(pyrimidin-4-yl)-pyrimidin-4-one] was 0.43 nM; that for `Cn1c(N2CCO[C@@H](c3ccc(C(=O)NCCO)cc3)C2)nc(-c2ccncn2)cc1=O` [Compound No. 210, N-(2-hydroxy-ethyl)-4-[(2S)-4-(1-methyl-6-oxo-1,6-dihydro-[4,4′]bipyrimidinyl-2-yl)-morpholin-2-yl]-benzamide] was 5.4 nM. For the compound `CN(C)CC(=O)Nc1ccc([C@H]2CN(c3nc(-c4ccncn4)cc(=O)n3C)CCO2)cc1` [Compound No. 220, N^2,N^2-Dimethyl-N^1-{4-[(2S)-4-(1-methyl-6-oxo-1,6-dihydro-4,4′-bipyrimidin-2-yl)morpholin-2-yl]phenyl}glycinamide], the IC50 (in general, the point on the concentration scale where inhibition reaches its midpoint) was determined as 0.48 nM.

Compound `COC(=O)Nc1ccc([C@H]2CN(c3nc(-c4ccncc4)cc(=O)n3C)CCO2)cc1` [Compound No. 231, Methyl (4-((2S)-4-(3-methyl-4-oxo-6-(pyridin-4-yl)-3H-pyrimidin-2-yl)morpholin-2-yl)-phenyl)carbamate] returned an IC50 of 5.8 nM. The compound `CN(C)C(=O)Nc1ccc([C@H]2CN(c3nc(-c4ccncc4)cc(=O)n3C)CCO2)cc1` [Compound No. 237, 1,1-Dimethyl-3-{4-[4-(1-methyl-6-oxo-4-pyridin-4-yl-1,6-dihydro-pyrimidin-2-yl)-morpholin-2-yl]-phenyl}-urea] yielded an IC50 of 9.7 nM. Compound `Cn1c(N2CCO[C@@H](c3ccc(N4CCC(N5CCCC5)CC4)cc3)C2)nc(-c2ccncc2)cc1=O` [compound 6] had a half-inhibitory concentration (IC50) of 3.4 nM.

`Cn1c(N2CCO[C@@H](c3ccc(Nc4ccncc4)cc3)C2)nc(-c2ccncc2)cc1=O` [compound 50] showed an IC50 of 4.8 nM.

Compound `Cn1c(N2CCO[C@@H](c3ccc(NC(=O)c4ccccc4)cc3)C2)nc(-c2ccncc2)cc1=O` [compound 70] came in with an IC50 of 5.1 nM. Consider `Cn1c(N2CCO[C@@H](c3ccc(NC(=O)CN4CCN(c5ccccc5)CC4)cc3)C2)nc(-c2ccncc2)cc1=O` [compound 100], for which half-maximal inhibition (IC50) required 5.2 nM.
